Where “and” joins values, the source holds several entries; their conditions need not be identical. Equal entries are not always repeated. Entries after “also recorded” stand apart in the source; their conditions may differ. Where two headings read alike, the source gives them in different places.
Experiments:
[1] = tested on: M2 of influenza A(H1N1) viruses
[2] = tested on: NA enzyme activity of influenza A(H1N1) viruses; type: biochemical, influenza A(H1N1) virus
[3] = tested on: influenza virus; conditions: human, in vivo; cited from earlier work

NC12CC3CC(CC(C3)C1)C2 [amantadine]
susceptibility of oseltamivir resistant A(H1N1) viruses to amantadine / M2I [1]: still susceptible

CCOC(=O)C1=C[C@@H](OC(CC)CC)[C@H](NC(C)=O)[C@@H](N)C1 [oseltamivir]
proportion of viruses resistant against oseltamivir, phenotypic assessment [2]: 29% | oseltamivir-resistance emerged in treated children [3]: 18% and 16%

CC(=O)N[C@H]1[C@H]([C@H](O)[C@H](O)CO)OC(C(=O)O)=C[C@@H]1N=C(N)N [zanamivir]
susceptibility of oseltamivir resistant A(H1N1) viruses to zanamivir [2]: None of influenza A(H1N1) oseltamivir resistant viruses tested was resistant; also recorded: sensitive; also recorded: still susceptible | IC50 ([2]; read-out: baseline zanamivir IC50-value (mean±SD)): 1.05 nM and 0.98 nM | IC50 ([2]; read-out: mean IC50 ± SD): 0.87 ± 0.22 nM

Source: publication PMC3249654 (The Open Virology Journal, 2011)
